Several values for one entry are separate records, joined by “and”; a condition that tells them apart may be missing. Equal values may be shown once.
Tested on: HOP-62 complex spheroids with HUVEC/MSC, viability
Assay: Anticancer human tumor HOP-62 cell line growth inhibition [RAS];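 also: spheroids exposed to agents for seven days before readout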
Details: for viability, T/C: stronger effect = lower value; active = viability on the fitted dose curve at most 10% of control; inactive = the rest
Excerpt: RAS pathway inhibitors in Combinations in Complex Spheroids
A high-throughput screen of multi-cell type tumor spheroids was designed to identify active combinations of RAS pathway inhibitors and targeted small molecules. Complex spheroids include a stromal component modeled by human endothelial cells (HUVEC) and fibroblasts modeled by human mesenchymal stem cells (MSCs). The concentration ranges selected for each drug and investigational agent were based upon clinically achievable concentrations if the clinical Cmax of the agent was known.
Compounds. The drugs and investigational agents: abemaciclib (NSC768073), cobimetinib (NSC768068), divarasib (GDC6063, NSC841802), docetaxel (NSC628503), GDC-1971 (RLY-1971, NSC841576), gemcitabine (NSC613327), inavolisib (NSC800729), ipatasertib (NSC767898), KB-0742 (NSC834161), MRTX-1133 (NSC836407), osimertinib (NSC779217), RMC-4630 (NSC839698), RMC-6236 (NSC851965), RMC-6291 (NSC852671), Ro-3306 (NSC812927), sapanisertib (NSC764658), SN-38 (NSC673596), staurosporine (NSC755774), SY5609 (NSC837396), and tovorafenib (DAY101, NSC766906), were obtained from the National Cancer Institute (NCI) Developmental Therapeutics Program Chemical Repository. The FDA-approved anticancer drug set is available from the NCI Developmental Therapeutics Program. […] The stock solutions were prepared in dimethyl sulfoxide (DMSO, Sigma-Aldrich, St. Louis, MO, cat. D2650) at 800-fold the tested concentration and stored at -70 degrees C prior to their use. All drugs and investigational agents were tested over a range starting from a high concentration at or near the clinical Cmax and decreasing in half-log increments. If the clinical Cmax for an agent had not been determined, the highest concentration tested was 10 microM.
Cell Culture. All cells were maintained in an incubator at 37 degrees C and 5% CO2 with 95% humidity. The PDC lines were cultured according to standard operating procedures established by the NCI PDMR. All PDCs were thawed and cultured in Matrigel-coated flasks prepared with a working solution of 1X Ham's F-12 nutrient mix, without supplementation (Invitrogen, Waltham, MA, cat. 11765054), 100 U/mL penicillin-streptomycin (Invitrogen, cat. 15140122), and 2.5% Matrigel (Corning Inc., Corning, NY, cat. 354248) for the first three passages. The 362531-283-R-J2-PDC and 782815-120-R-J1-PDC lines were cultured in 6C/Colon 1B media, which includes advanced DMEM/F-12 (Thermo Fisher Scientific, cat. 12634028), 10 mM HEPES (Thermo Fisher Scientific, cat. 15630080), 1X GlutaMAX supplement (Thermo Fisher Scientific, cat. 35050061), 0.1 mg/mL primocin (InvivoGen, San Diego, CA, cat. ant-pm-2), 10% defined fetal bovine serum, heat inactivated (HyClone Laboratories Inc., Logan, UT, cat. SH30070.03HI), 50% L-WRN conditioned media (ATCC, cat. CRL-3276), 1.25 mM N-Acetyl-L-cysteine (Sigma-Aldrich, cat. A9165), 10 mM nicotinamide (Sigma-Aldrich, cat. N0636), 1X B-27 supplement (Thermo Fisher Scientific, cat. 17504044), 1X N-2 supplement (Thermo Fisher Scientific, cat. 17502048), 50 ng/mL human EGF (Thermo Fisher Scientific, cat. PHG0311), and 10 microM Y-27632 dihydrochloride (Tocris Bioscience, cat. 1254). The K12877-001-R-J1-PDC line was cultured in 6I media, which includes all 6C/Colon 1B media plus 10 ng/mL human FGF-10 (PeproTech, cat. 100-26), 1 ng/mL human FGF-2 (PeproTech, cat. 100-18B), 1 µM prostaglandin E2 (Tocris Bioscience, cat. 2296), […] hydrocortisone (Sigma-Aldrich, cat. H4001), and […] bovine insulin (Sigma-Aldrich, cat. I6634). The K86415-001-R-J1-PDC line was cultured in 6D media, which includes all 6C/Colon 1B media components minus the L-WRN conditioned media. The 485176-168-R4-J1-PDC was cultured in PANC media, which includes all 6C/Colon 1B media plus 100 ng/mL human FGF-10 (PeproTech, cat. 100-26), 500 nM SB-431542 (Selleckchem, cat. S1067), and 10 nM gastrin (Tocris Bioscience, cat. 3006). […]

C#Cc1c(F)ccc2cc(O)cc(-c3ncc4c(N5CC6CCC(C5)N6)nc(OCC56CCCN5CC(F)C6)nc4c3F)c12 (stereo not given)
inactive: viability, T/C (compound 0.0316 µM) 107% [middle of 8 runs] | viability, T/C (compound 0.1 µM) 113% [middle of 8 runs] | viability, T/C (compound 0.316 µM) 109% [middle of 8 runs] | viability, T/C (compound 1 µM) 100% [middle of 8 runs] | viability, T/C (compound 3.16 µM) 81.1% [middle of 8 runs] | viability, T/C (compound 10 µM) 48% [middle of 8 runs]

C=CC(=O)N1CCN(c2nc(OCC3CCCN3C)nc3c(F)c(-c4nc(N)cc(C)c4C(F)(F)F)c(Cl)cc23)C(C)C1 (stereo not given)
> 1000 nM: IC50 (compound alone, run of 07/15/2024) | IC50 (curve of compound)
inactive: viability, T/C (compound 0.01 µM, compound 0.0316 µM) 66.5% | viability, T/C (compound 0.01 µM, compound 0.1 µM) 64.5% | viability, T/C (compound 0.01 µM, compound 0.316 µM) 71% | viability, T/C (compound 0.01 µM, compound 1 µM) 61.3% | viability, T/C (compound 0.0316 µM, compound 0.00316 µM) 68.3% | viability, T/C (compound 0.0316 µM, compound 0.01 µM) 62.3% | viability, T/C (compound 0.0316 µM, compound 0.1 µM) 66.5% | viability, T/C (compound 0.0316 µM, compound 0.316 µM) 64% | viability, T/C (compound 0.0316 µM, compound 1 µM) 64.2% | viability, T/C (compound 0.0316 µM) 67.5% | viability, T/C (compound 0.1 µM, compound 0.00316 µM) 59.4% | viability, T/C (compound 0.1 µM, compound 0.01 µM) 63.4% | viability, T/C (compound 0.1 µM, compound 0.0316 µM) 57.5% | viability, T/C (compound 0.1 µM, compound 0.316 µM) 66.9% | viability, T/C (compound 0.1 µM, compound 1 µM) 62.5% | viability, T/C (compound 0.1 µM) 64.9% | viability, T/C (compound 0.316 µM, compound 0.00316 µM) 69.2% | viability, T/C (compound 0.316 µM, compound 0.01 µM) 68% | viability, T/C (compound 0.316 µM, compound 0.0316 µM) 59.4% | viability, T/C (compound 0.316 µM, compound 0.1 µM) 66% | viability, T/C (compound 0.316 µM, compound 1 µM) 68% | viability, T/C (compound 0.316 µM) 66.3% | viability, T/C (compound 1 µM, compound 0.00316 µM) 76.3% | viability, T/C (compound 1 µM, compound 0.01 µM) 65.6% | viability, T/C (compound 1 µM, compound 0.0316 µM) 64% | viability, T/C (compound 1 µM, compound 0.1 µM) 66.4% | viability, T/C (compound 1 µM, compound 0.316 µM) 65% | viability, T/C (compound 1 µM) 67.3% [middle of 13 runs]

C=CC(=O)Nc1cc(Nc2nccc(-c3cn(C)c4ccccc34)n2)c(OC)cc1N(C)CCN(C)C
> 1000 nM: IC50 (curve of compound)
inactive: viability, T/C (compound 0.00316 µM) 103% [middle of 4 runs] | viability, T/C (compound 0.01 µM) 101% [middle of 4 runs] | viability, T/C (compound 0.0316 µM) 108% [middle of 4 runs] | viability, T/C (compound 0.1 µM) 110% [middle of 4 runs] | viability, T/C (compound 0.316 µM) 110% [middle of 4 runs] | viability, T/C (compound 1 µM) 103% [middle of 4 runs]

CC(C)NCC(C(=O)N1CCN(c2ncnc3c2C(C)CC3O)CC1)c1ccc(Cl)cc1 (stereo not given)
inactive: viability, T/C (compound 0.0316 µM) 105% [middle of 4 runs] | viability, T/C (compound 0.1 µM) 105% [middle of 4 runs] | viability, T/C (compound 0.316 µM) 98.4% [middle of 4 runs]

CC(C)n1nc(-c2ccc3oc(N)nc3c2)c2c(N)ncnc21
inactive: viability, T/C (compound 0.000316 µM) 105% [middle of 4 runs] | viability, T/C (compound 0.001 µM) 97.4% [middle of 4 runs] | viability, T/C (compound 0.00316 µM) 93.7% [middle of 4 runs] | viability, T/C (compound 0.01 µM) 98.7% and 65.8% and 66.1%

Source: PubChem BioAssay AID2060892 (Molecular Pharmacology Branch, DTP, NCI, 2025)
